Values quoted from earlier work as cited in PMC2698789 (Pancreas, 2008).

Test system: sst 2 receptor

## C[C@@H](O)[C@@H]1NC(=O)[C@H](CCCCN)NC(=O)[C@@H](Cc2c[nH]c3ccccc23)NC(=O)[C@H](Cc2ccccc2)NC(=O)[C@@H](NC(=O)[C@H](N)Cc2ccccc2)CSSC[C@@H](C(=O)N[C@H](CO)[C@@H](C)O)NC1=O [octreotide, Octreotide acetate]
  Receptor subtype preference among somatostatin receptors sst 1–sst 5: binds preferentially to sst 2
